Data on four compounds can be found in PMC9569790, “From Solution Studies of Pharmaceuticals (Aspirin and Related Compounds) to the Thermodynamics of Aspirin-β-Cyclodextrin Interaction in water and N,N-Dimethylformamide” (International Journal of Molecular Sciences, 2022).

Data set [1] in a line: Conductance measurements in water. It is filed as physicochemical. The settings on record: for Ionic conductivity at infinite dilution of the anion, λA^−: from Λ^0m and λH^+ = 349.8.
Description: H^+ (aq) + A^− (aq) ⇌ HA (aq)(1)
The ion-pair formation constant for the process described by Equation (1) is expressed in terms of activities, a, as shown in Equation (2): (2) Kip=aHA/aH^+∗aA^−=HA∗γHA/H^+∗[A^−]∗γ±i^2
The conductivity cell constant was determined by the method of Jones and Bradshaw [39] as previously reported [24]. Conductance measurements were performed using the Wayne Kerr Autobalance Universal Bridge, type B642, and the Wayne Kerr Model 7330 Automatic LCR Meter Conductivity Bridge at a frequency of 1 Hz. […] Conductance readings at 298.15 K were recorded after each addition.
Data set [2] can be described thus: Solubility measurements (gravimetric analysis of saturated solutions) in water. It is filed as physicochemical. On the procedure:
(§1) The mixtures were left in a thermostatic bath at 298.15 K until equilibrium was reached. Aliquots of the saturated solutions were removed and analyzed gravimetrically by taking a known volume of sample, evaporating the solvent and then weighing the solid in a dry atmosphere. The weighing process was repeated until a constant weight was obtained. The analytical determination was carried out in triplicate on the same equilibrium mixture. Solvate formation was tested by storing the compounds over water or DMF in a desiccator containing an atmosphere saturated with the appropriate solvent over a period of at least four days.

The nature of data set [3]: Calorimetric enthalpies of solution in water. The data set is classed as physicochemical. The settings on record: 298.15 K; for ΔsH^0, standard enthalpy of solution: average of the ΔsH values. The source says: No measurements could be carried out at higher concentrations since the dissolution rate of this compound in water was relatively slow. […] Since there were no systematic changes in the ΔsH values with changes in the concentration of solute, the standard ΔsH^0 value reported in Table 3 is the average value. In the dissolution of a solute in water or any other solvent, there are two processes involved, as described in Equation (5):ΔsH^0 = ΔclH^0 + ΔsolvH^0(5)
(§2) The reliability of the calorimeter was checked by carrying out the standard reaction based on the protonation of an aqueous solution of tris-(hydroxymethyl)aminomethane (THAM) with an aqueous solution of hydrochloric acid (0.1 mol dm^−3) at 298.15 K (Equation (11)). H2NC(CH2OH)3(aq) + H3O+ (aq) → H3N+C(CH2OH)3(aq) + H2O(aq)(11)
(§3) The system was then placed in a water bath until thermal equilibrium was attained, after which the ampoule was broken into the solvent and the process was monitored by the chart recorder. The observed heat was corrected for the heat of the breaking of the empty ampoule in the solvent. The standard enthalpy of the solution, ∆sH^0, was found from […].

Data set [4] in a line: Calorimetric enthalpies of solution in DMF. It is filed as physicochemical. To be noted: 298.15 K; for ΔsH^0, standard enthalpy of solution: average of the ΔsH values.
Description: All observed heats were corrected for the heat from breaking the empty ampoules in DMF (Q = −0.0518 J). Since there were no systematic changes in the ΔsH values with changes in the concentration of the solute, the reported standard ΔsH^0 values are the average values of the data reported in Table 5. This table also includes the standard deviations of the data.
as §2, §3

Data set [5] can be described thus: Gibbs free energy and entropies of solution in water, corrected for ion-pair formation. The data set is classed as physicochemical. The settings on record: 298.15 K; for pKsp: corrected for ion-pair formation; for ΔsG^0, standard Gibbs energy of solution: standard state 1 mol dm^−3. An excerpt:
In Equation (2), concentrations are in mol dm^−3, and γ ± i^2 is the mean molar ionic coefficient calculated by the use of the Debye–Hückel equation, where γHA is the activity coefficient of the un-ionized species. In very dilute solutions, γHA may be considered equal to unity. As far as the standard Gibbs energy of the solution in the standard state of 1 mol dm^−3, ∆sG^0, is concerned, the application of Equation (3) requires knowledge of the ion-pair formation constant in solution. The availability of Kip and solubilities in water allows the calculation the ionic molar concentration, ci, and the molar concentration of ion pairs, cip, as previously shown. The data refer to the standard state (1 mol dm^−3). ΔsG^0= −RTln (ci^2 * γ±i^2)(3)
In Equation (6), aH^+ and aA^− represent the activities of the species H^+ and A^− in solution respectively. The activity of the solid is unity by convention. The activity, a, on the molar scale (mol dm^−3) is related to the ionic molar concentration, ci, by the mean molar ionic activity coefficient, γ ± i.
Thus:K^0sp = ci^2 ∗ γ ± i^2 (7)
The availability of Gibbs energy (Equation (3)) and enthalpy values allows the calculation of the entropy of solution, ΔsS. For this purpose, the following equation was used.

The nature of data set [6]: Transfer thermodynamic parameters from water to DMF. It is filed as physicochemical. To be noted: 298.15 K. The source says:
As mentioned earlier, ΔsH^0 is made by the contribution of the crystal lattice enthalpy and the solvation enthalpy. In order to remove the contribution of the crystal lattice process, it is a common practice to calculate the transfer thermodynamic parameters according to the following process: […]

Data set [7] can be described thus: Solvate formation test in a solvent-saturated atmosphere. The data set is classed as physicochemical. To be noted: water. On the procedure: as §1
For data set [8] the following is noted: water, same temperature, conductimetry; cited from earlier work.

Read-outs that look alike come from different tables or passages of the source.

Take `CC(=O)Oc1ccccc1C(=O)O` [acetylsalicylate]: the “Ionic conductivity at infinite dilution of the anion, λA^−” value in data set [1] (water, 298.15 K) is reported as 42.2 S cm^2 mol^−1.
In general, pKa refers to the pH at which an ionisable group is half protonated. Turning to `CC(=O)c1ccc(O)c(C(=O)O)c1` [5-acetylsalicylic acid], the “Solubility, S” value in data set [2] was “(3.46 ± 0.22) ∗ 10^−3 mol dm^−3”. This compound also yielded a pKa in data set [1] of 3.04. Also, the “Ka, dissociation constant” value in data set [1] (water, 298.15 K) is reported as 9.09 × 10^−4. Also, the “Kip, ion-pair formation constant” value in data set [1] (water, 298.15 K) is on record as 11 × 10^2. Further, the “Λ^0m, molar conductance at infinite dilution” value in data set [1] (water, 298.15 K) was 389 S cm^2 mol^−1. The “ΔsH^0, standard enthalpy of solution” value in data set [3] was 6.74 kcal/mol; in data set [3] (listed as 5-Acetylsalicylic Acid) it was “ΔsH^0 = 28.2 ± 0.3 kJ mol^−1”; in data set [4] it was 1.63 ± 0.048 kcal/mol. Besides, the “ΔsH, enthalpy of solution” value in data set [3] (c = 2.58 × 10^−4 mol dm^−3) was 6.862 kcal/mol; in data set [3] (c = 2.66 × 10^−4 mol dm^−3) it was 6.795 kcal/mol; in data set [3] (c = 4.49 × 10^−4 mol dm^−3), 6.74 kcal/mol; in data set [3] (c = 6.67 × 10^−4 mol dm^−3), 6.663 kcal/mol; in data set [3] (c = 7.05 × 10^−4 mol dm^−3), 6.807 kcal/mol; in data set [3] (c = 8.05 × 10^−4 mol dm^−3), 6.673 kcal/mol. Also, the “ΔsH, enthalpy of solution” value in data set [4] (c = 1.11 × 10^−3 mol dm^−3) worked out at 1.58 kcal/mol; in data set [4] (c = 1.45 × 10^−3 mol dm^−3) it was 1.59 kcal/mol; in data set [4] (c = 1.76 × 10^−3 mol dm^−3), 1.57 kcal/mol; in data set [4] (c = 2.07 × 10^−3 mol dm^−3), 1.59 kcal/mol; in data set [4] (c = 2.18 × 10^−3 mol dm^−3) it was 1.69 kcal/mol; in data set [4] (c = 2.38 × 10^−3 mol dm^−3), 1.66 kcal/mol. Further, in data set [5], the “ΔsS^0, entropy of solution” value is given as −15 J K^−1 mol^−1. The pKsp in data set [5] came to 5.74. The “ΔsG^0, standard Gibbs energy of solution” value in data set [5] stood at 7.82 kcal/mol. The “ΔtH^0, enthalpy of transfer” value in data set [6] was -5.11 kcal/mol. The Solvate formation result in data set [7] is “not detected”.
For the compound `CC(=O)c1ccc(O)c(C(=O)O)c1` [5-acetylsalicylate], the “Ionic conductivity at infinite dilution of the anion, λA^−” value in data set [1] (water, 298.15 K) is on record as 39.2 S cm^2 mol^−1.
Take `CC(=O)Oc1ccc(C(=O)O)cc1` [4-acetoxybenzoic acid]: the “Ka, dissociation constant” value in data set [1] (water, 298.15 K) is 4.55 × 10^−5. The “Kip, ion-pair formation constant” value in data set [1] (water, 298.15 K) was 22 × 10^3. For the same compound, the “Λ^0m, molar conductance at infinite dilution” value in data set [1] (water, 298.15 K) amounted to 401 S cm^2 mol^−1. Moreover, the pKa in data set [1] (water, 298.15 K, conductance, read-out: pKa) was determined as 4.34. For the same compound, the “ΔsH^0, standard enthalpy of solution” value is 4.78 kcal/mol in data set [3], “ΔsH^0 = 20 ± 1 kJ mol^−1” in data set [3] (listed as 4-Acetoxybenzoic Acid) and 0.932 ± 0.024 kcal/mol in data set [4]. Besides, the “ΔsH, enthalpy of solution” value in data set [3] (c = 4.51 × 10^−4 mol dm^−3) is 4.52 kcal/mol; in data set [3] (c = 4.57 × 10^−4 mol dm^−3), 4.381 kcal/mol; in data set [3] (c = 4.66 × 10^−4 mol dm^−3), 4.84 kcal/mol; in data set [3] (c = 4.90 × 10^−4 mol dm^−3), 4.902 kcal/mol; in data set [3] (c = 6.17 × 10^−4 mol dm^−3), 4.928 kcal/mol; in data set [3] (c = 6.75 × 10^−4 mol dm^−3), 5.017 kcal/mol. Moreover, the “ΔsH, enthalpy of solution” value was found to be 0.93 kcal/mol in data set [4] (c = 1.03 × 10^−3 mol dm^−3); 0.98 kcal/mol in data set [4] (c = 1.18 × 10^−3 mol dm^−3); 0.949 kcal/mol in data set [4] (c = 1.26 × 10^−3 mol dm^−3); 0.954 kcal/mol in data set [4] (c = 1.60 × 10^−3 mol dm^−3); 0.908 kcal/mol in data set [4] (c = 1.82 × 10^−3 mol dm^−3). Also, the “ΔsS^0, entropy of solution” value in data set [5] is reported as −58 J K^−1 mol^−1. The pKsp in data set [5] is reported as 6.57. Also, in data set [5], the “ΔsG^0, standard Gibbs energy of solution” value amounted to 8.96 kcal/mol. For the same compound, the “ΔtH^0, enthalpy of transfer” value in data set [6] was -3.85 kcal/mol. For the same compound, the Solvate formation result in data set [7] was “not detected”. Further, the “pKa (literature)” value in data set [8] is recorded as 4.38.
